Converted amounts (≈) assume the structure as drawn. Where two headings read alike, the source gives them in different places.
Key:
[1] = system: P. aeruginosa; experiment: MIC against P. aeruginosa; assay type: cell-based; settings: Pseudomonas aeruginosa, read-out: MIC
Text: Only compound 1 was able to decrease the CFU/mL when used in conjunction with white light to treat P. aeruginosa.

[2] = system: S. aureus (ATCC 29213); experiment: MIC against drug sensitive S. aureus; assay type: cell-based; settings: Staphylococcus aureus, ATCC29213; ATCC 29213; read-out: S. aureus MIC
[3] = system: MRSA isolates (S. aureus ATCC 33591, BAA-44, BAA-1707, BAA-1717, BAA-1720, BAA-1747, BAA-1754, BAA-1761, BAA-1763, BAA-1764, BAA-1766); experiment: Combination effects of compounds 7-11 and antibiotics on MRSA isolates (turbidity); assay type: cell-based
Text: Inhibition resulting from co-treatment of a broth suspension with a compound of the invention and an antibiotic was compared to broth suspensions subjected to each individual treatment. A visual observation of inhibition with the unaided eye upon co-treatment of the broth suspensions, based on turbidity, was considered synergistic.
Exceptions to reading complete inhibition of growth included Gram-positive cocci. For Gram-positive cocci, trailing growth was observed. For these species, the MICs were read at the first spot where trailing was observed, and tiny buttons of growth were ignored. […]
Two-fold dilutions of the antibiotics were prepared in a liquid growth medium dispensed in test tubes. […] The antibiotic-containing tubes were inoculated with a standard bacterial suspension of 5×10^5 CFU/mL. Following an overnight incubation (16-20 hrs) at 35±2° C. under ambient air, the tubes were examined for visible bacterial growth based on turbidity. The lowest concentration of antibiotic that prevented growth was determined to be the MIC. An incubation time of 24 hrs was used to determine the MICs of oxacillin and vancomycin.

[4] = system: MRSA; experiment: Resensitization to antibiotics (log reduction, TABLE 29); assay type: cell-based, S. aureus; settings: compound 5 μM
[5] = system: WI38 cells; experiment: Toxicity (IC50) on WI38 cells; assay type: cell-based; settings: Homo sapiens, WI-38; normal lung fibroblast WI38 cells
Description: The toxicities of the compounds of the invention were determined for human cancerous cervical epithelium HeLa and normal lung fibroblast WI38 cells. The toxicities of EPIs INF-55 and INF-55Cl were quantified as controls. […] TABLE 2 compares the toxicity of compounds 7-11 on HeLa cells and normal WI38 cells.

[6] = system: A. baumannii; experiment: Resensitization to antibiotics (log reduction, TABLE 29); assay type: cell-based
[7] = MIC against MRSA isolates; assay type: cell-based, S. aureus; settings: Staphylococcus aureus
Outline: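 Broth microdilution in TSB, ~5×10^5 CFU/mL, two-fold dilutions from 100 μM, overnight at 37 °C shaking 100 rpm.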

[8] = system: VRE; experiment: Resensitization to antibiotics (log reduction, TABLE 29); assay type: cell-based, Enterococcus faecalis; settings: compound 7.5 μM

Brc1ccc(/N=N/c2c[nH]c3ccccc23)cc1 [Compound 8]
MIC [1]: > 100 µM | MIC [2]: 8 µM (≈ 2.4 µg/mL) | combination effect with Gentamycin ([3]; MRSA ATCC 33591): No Synergy | combination effect with Norfloxacin ([3]; MRSA ATCC 33591): No Synergy | combination effect with Oxacillin ([3]; MRSA ATCC 33591): No Synergy | combination effect with Tetracycline ([3]; MRSA ATCC 33591): No Synergy | combination effect with Vancomycin ([3]; MRSA ATCC 33591): Susceptible | combination effect with Norfloxacin ([3]; MRSA ATCC BAA-44): No Synergy | combination effect with Oxacillin ([3]; MRSA ATCC BAA-44): No Synergy | combination effect with Tetracycline ([3]; MRSA ATCC BAA-44): Susceptible | combination effect with Vancomycin ([3]; MRSA ATCC BAA-44): Susceptible | combination effect with Gentamycin ([3]; MRSA ATCC BAA-1707): Susceptible | combination effect with Norfloxacin ([3]; MRSA ATCC BAA-1707): Susceptible | combination effect with Oxacillin ([3]; MRSA ATCC BAA-1707): Susceptible | combination effect with Tetracycline ([3]; MRSA ATCC BAA-1707): No Synergy | combination effect with Vancomycin ([3]; MRSA ATCC BAA-1707): Susceptible | combination effect with Gentamycin ([3]; MRSA ATCC BAA-1717): Susceptible | combination effect with Norfloxacin ([3]; MRSA ATCC BAA-1717): Susceptible | combination effect with Oxacillin ([3]; MRSA ATCC BAA-1717): Synergy | combination effect with Tetracycline ([3]; MRSA ATCC BAA-1717): Susceptible | combination effect with Vancomycin ([3]; MRSA ATCC BAA-1717): Susceptible | combination effect with Gentamycin ([3]; MRSA ATCC BAA-1720): Susceptible | combination effect with Norfloxacin ([3]; MRSA ATCC BAA-1720): No Synergy | combination effect with Oxacillin ([3]; MRSA ATCC BAA-1720): Synergy | combination effect with Tetracycline ([3]; MRSA ATCC BAA-1720): Susceptible | combination effect with Vancomycin ([3]; MRSA ATCC BAA-1720): Susceptible | combination effect with Gentamycin ([3]; MRSA ATCC BAA-1747): Susceptible | combination effect with Norfloxacin ([3]; MRSA ATCC BAA-1747): Susceptible | combination effect with Oxacillin ([3]; MRSA ATCC BAA-1747): Susceptible | combination effect with Tetracycline ([3]; MRSA ATCC BAA-1747): Susceptible | combination effect with Vancomycin ([3]; MRSA ATCC BAA-1747): Susceptible | combination effect with Gentamycin ([3]; MRSA ATCC BAA-1754): Susceptible | combination effect with Norfloxacin ([3]; MRSA ATCC BAA-1754): Susceptible | combination effect with Oxacillin ([3]; MRSA ATCC BAA-1754): Synergy | combination effect with Tetracycline ([3]; MRSA ATCC BAA-1754): Susceptible | combination effect with Vancomycin ([3]; MRSA ATCC BAA-1754): Susceptible | combination effect with Gentamycin ([3]; MRSA ATCC BAA-1761): Susceptible | combination effect with Norfloxacin ([3]; MRSA ATCC BAA-1761): No Synergy | combination effect with Oxacillin ([3]; MRSA ATCC BAA-1761): Susceptible | combination effect with Tetracycline ([3]; MRSA ATCC BAA-1761): Susceptible | combination effect with Vancomycin ([3]; MRSA ATCC BAA-1761): Susceptible | combination effect with Gentamycin ([3]; MRSA ATCC BAA-1763): Susceptible | combination effect with Norfloxacin ([3]; MRSA ATCC BAA-1763): No Synergy | combination effect with Oxacillin ([3]; MRSA ATCC BAA-1763): Synergy | combination effect with Tetracycline ([3]; MRSA ATCC BAA-1763): Susceptible | combination effect with Vancomycin ([3]; MRSA ATCC BAA-1763): Susceptible | combination effect with Gentamycin ([3]; MRSA ATCC BAA-1764): Susceptible | combination effect with Norfloxacin ([3]; MRSA ATCC BAA-1764): Susceptible | combination effect with Oxacillin ([3]; MRSA ATCC BAA-1764): Synergy | combination effect with Tetracycline ([3]; MRSA ATCC BAA-1764): Susceptible | combination effect with Vancomycin ([3]; MRSA ATCC BAA-1764): Susceptible | combination effect with Gentamycin ([3]; MRSA ATCC BAA-1766): Susceptible | combination effect with Norfloxacin ([3]; MRSA ATCC BAA-1766): Susceptible | combination effect with Oxacillin ([3]; MRSA ATCC BAA-1766): Synergy | combination effect with Tetracycline ([3]; MRSA ATCC BAA-1766): Susceptible | combination effect with Vancomycin ([3]; MRSA ATCC BAA-1766): Susceptible | Log Reduction ([4]; Norfloxacin (25 μg/mL)): 2-3 | Log Reduction ([4]; Oxacillin (50 μg/mL)): 3-4 | IC50 [5]: 11.7 µM | Log Reduction ([6]; compound 5 μM, PME (0.05 μg/mL)): 9 | Log Reduction ([6]; compound 20 μM, PMB (0.2 μg/mL)): 9 | MIC ([7]; MRSA (ATCC BAA-44), TABLE 21, read-out: MRSA MIC): 15 µM (≈ 4.5 µg/mL) | MIC ([7]; MRSA isolate ATCC 33591, read-out: MIC): 3.1 to 6.3 µM (≈ 0.93 to 1.89 µg/mL) | MIC ([7]; MRSA isolate ATCC BAA-44, read-out: MIC): 15 µM (≈ 4.5 µg/mL) | MIC ([7]; MRSA isolate ATCC BAA-1707, read-out: MIC): 6.3 µM (≈ 1.89 µg/mL) | MIC ([7]; MRSA isolate ATCC BAA-1717, read-out: MIC): 6.3 µM (≈ 1.89 µg/mL) | MIC ([7]; MRSA isolate ATCC BAA-1720, read-out: MIC): 6.3 µM (≈ 1.89 µg/mL) | MIC ([7]; MRSA isolate ATCC BAA-1747, read-out: MIC): 6.3 µM (≈ 1.89 µg/mL) | MIC ([7]; MRSA isolate ATCC BAA-1754, read-out: MIC): 12.5 µM (≈ 3.75 µg/mL) | MIC ([7]; MRSA isolate ATCC BAA-1761, read-out: MIC): 12.5 µM (≈ 3.75 µg/mL) | MIC ([7]; MRSA isolate ATCC BAA-1763, read-out: MIC): 6.3 µM (≈ 1.89 µg/mL) | MIC ([7]; MRSA isolate ATCC BAA-1764, read-out: MIC): 12.5 µM (≈ 3.75 µg/mL) | MIC ([7]; MRSA isolate ATCC BAA-1766, read-out: MIC): 12.5 µM (≈ 3.75 µg/mL) | Log Reduction ([8]; Tetracycline (1.5 μg/mL)): 3-4 | Log Reduction ([8]; Vancomycin (3.5 μg/mL)): 3

Reference: US9834514B2, “Antibiotic sensitivity-restoring and photosensitive agents” (New Mexico Tech Research Foundation, priority 2015, dated 2017)
